Experimental data taken from ChEMBL document CHEMBL3351564, “Discovery of a phosphodiesterase 9A inhibitor as a potential hypoglycemic agent” (J Med Chem, 2014).
≈ marks a conversion by molar mass, not a printed value.

Columns and labels:
[1] = target: High affinity cAMP-specific and IBMX-insensitive 3',5'-cyclic phosphodiesterase 8A (Homo sapiens, UniProt O60658); experiment: Inhibition of PDE8A1 catalytic domain (unknown origin) using [3H]-cGMP/[3H]-cAMP as substrate after 15 mins by liquid scintillation counting analysis
[2] = Plasma protein binding in human at 1 to 5 uM after 4 hrs by LC/MS/MS analysis; type: ADME, cell-free; conditions: read-out: PPB
[3] = Solubility of the compound in simulated gastric fluid at pH 1.4 after 24 to 48 hrs by HPLC analysis; type: ADME; conditions: simulated gi fluid
[4] = Solubility of the compound in simulated intestinal fluid at pH 6.8 after 24 to 48 hrs by HPLC analysis; type: ADME; conditions: simulated gi fluid
[5] = Apparent clearance in CD-1 mouse liver microsomes at […] incubated for 5 mins prior to NADPH addition measured after 30 mins by LC/MS/MS analysis; type: ADME; conditions: read-out: CL(app)
[6] = Hepatic clearance in CD-1 mouse liver microsomes at […] incubated for 5 mins prior to NADPH addition measured after 30 mins by LC/MS/MS analysis; type: ADME
HepG2 [7] = experiment: Hypoglycemic effect in human HepG2 cells assessed as reduction of 8-Br-cAMP/dexamethasone-induced G-6-Pase mRNA expression at 100 nM (reference value: 233%); type: functional; parameters: scale not given: the % may be the effect or the level left
HepG2 [8] = experiment: Hypoglycemic effect in human HepG2 cells assessed as reduction of 8-Br-cAMP/dexamethasone-induced G-6-Pase mRNA expression at 10 nM (reference value: 233%); type: functional; parameters: scale not given: the % may be the effect or the level left
HepG2 [9] = experiment: Hypoglycemic effect in human HepG2 cells assessed as reduction of 8-Br-cAMP/dexamethasone-induced PEPCK mRNA expression at 1000 nM (reference value: 184%); type: functional; parameters: scale not given: the % may be the effect or the level left
HepG2 [10] = experiment: Hypoglycemic effect in human HepG2 cells assessed as reduction of 8-Br-cAMP/dexamethasone-induced PEPCK mRNA expression at 100 nM (reference value: 184%); type: functional; parameters: scale not given: the % may be the effect or the level left
HepG2 [11] = experiment: Hypoglycemic effect in human HepG2 cells assessed as reduction of 8-Br-cAMP/dexamethasone-induced PEPCK mRNA expression at 10 nM (reference value: 184%); type: functional; parameters: scale not given: the % may be the effect or the level left
[12] = target: cGMP-dependent 3',5'-cyclic phosphodiesterase (Homo sapiens, UniProt O00408); experiment: Inhibition of PDE2A3 catalytic domain (unknown origin) using [3H]-cGMP/[3H]-cAMP as substrate after 15 mins by liquid scintillation counting analysis
Liver = experiment: Half life in CD-1 mouse liver microsomes at […] incubated for 5 mins prior to NADPH addition measured after 30 mins by LC/MS/MS analysis; type: ADME; conditions: 0.5 h
Mus musculus [13] = experiment: Acute toxicity in KM mouse assessed as poisoned symptom at 1 to 1200 mg/kg, po measured up to 2 weeks; type: organism-based; parameters: dose 1-1200 mg/kg, route oral; conditions: in vivo, 336 h
Mus musculus [14] = experiment: Acute toxicity in KM mouse assessed as mortality at 1 to 1200 mg/kg, po measured up to 2 weeks; type: organism-based; parameters: dose 1-1200 mg/kg, route oral; conditions: in vivo, 336 h
Mus musculus [15] = experiment: Acute toxicity in KM mouse assessed as abnormal behaviour at 1 to 1200 mg/kg, po measured up to 2 weeks; type: organism-based; parameters: dose 1-1200 mg/kg, route oral; conditions: in vivo, 336 h
Mus musculus [16] = experiment: Acute toxicity in KM mouse assessed as change in water/food consumption at 1 to 1200 mg/kg, po measured up to 2 weeks; type: organism-based; parameters: dose 1-1200 mg/kg, route oral; conditions: in vivo, 336 h
Mus musculus [17] = experiment: Acute toxicity in KM mouse assessed as change in body weight at 1 to 1200 mg/kg, po measured up to 2 weeks; type: organism-based; parameters: dose 1-1200 mg/kg, route oral; conditions: in vivo, 336 h
HepG2 [18] = experiment: Hypoglycemic effect in human HepG2 cells assessed as reduction of 8-Br-cAMP/dexamethasone-induced G-6-Pase mRNA expression at 1000 nM (reference value: 233%); type: functional; parameters: scale not given: the % may be the effect or the level left
in vitro = conditions: CD-1, mouse, liver microsomes
[19] = target: High affinity cGMP-specific 3',5'-cyclic phosphodiesterase 9A (Homo sapiens, UniProt O76083); experiment: Inhibition of PDE9A2 catalytic domain (unknown origin) using [3H]-cGMP/[3H]-cAMP as substrate after 15 mins by liquid scintillation counting analysis
[20] = target: High affinity 3',5'-cyclic-AMP phosphodiesterase 7A (Homo sapiens, UniProt Q13946); experiment: Inhibition of PDE7A1 catalytic domain (unknown origin) using [3H]-cGMP/[3H]-cAMP as substrate after 15 mins by liquid scintillation counting analysis
[21] = target: cGMP-inhibited 3',5'-cyclic phosphodiesterase 3A (Homo sapiens, UniProt Q14432); experiment: Inhibition of PDE3A catalytic domain (unknown origin) using [3H]-cGMP/[3H]-cAMP as substrate after 15 mins by liquid scintillation counting analysis
Chain of cGMP-inhibited 3',5'-cyclic phosphodiesterase 3A (Q14432 whole entry, the tested form may be a part): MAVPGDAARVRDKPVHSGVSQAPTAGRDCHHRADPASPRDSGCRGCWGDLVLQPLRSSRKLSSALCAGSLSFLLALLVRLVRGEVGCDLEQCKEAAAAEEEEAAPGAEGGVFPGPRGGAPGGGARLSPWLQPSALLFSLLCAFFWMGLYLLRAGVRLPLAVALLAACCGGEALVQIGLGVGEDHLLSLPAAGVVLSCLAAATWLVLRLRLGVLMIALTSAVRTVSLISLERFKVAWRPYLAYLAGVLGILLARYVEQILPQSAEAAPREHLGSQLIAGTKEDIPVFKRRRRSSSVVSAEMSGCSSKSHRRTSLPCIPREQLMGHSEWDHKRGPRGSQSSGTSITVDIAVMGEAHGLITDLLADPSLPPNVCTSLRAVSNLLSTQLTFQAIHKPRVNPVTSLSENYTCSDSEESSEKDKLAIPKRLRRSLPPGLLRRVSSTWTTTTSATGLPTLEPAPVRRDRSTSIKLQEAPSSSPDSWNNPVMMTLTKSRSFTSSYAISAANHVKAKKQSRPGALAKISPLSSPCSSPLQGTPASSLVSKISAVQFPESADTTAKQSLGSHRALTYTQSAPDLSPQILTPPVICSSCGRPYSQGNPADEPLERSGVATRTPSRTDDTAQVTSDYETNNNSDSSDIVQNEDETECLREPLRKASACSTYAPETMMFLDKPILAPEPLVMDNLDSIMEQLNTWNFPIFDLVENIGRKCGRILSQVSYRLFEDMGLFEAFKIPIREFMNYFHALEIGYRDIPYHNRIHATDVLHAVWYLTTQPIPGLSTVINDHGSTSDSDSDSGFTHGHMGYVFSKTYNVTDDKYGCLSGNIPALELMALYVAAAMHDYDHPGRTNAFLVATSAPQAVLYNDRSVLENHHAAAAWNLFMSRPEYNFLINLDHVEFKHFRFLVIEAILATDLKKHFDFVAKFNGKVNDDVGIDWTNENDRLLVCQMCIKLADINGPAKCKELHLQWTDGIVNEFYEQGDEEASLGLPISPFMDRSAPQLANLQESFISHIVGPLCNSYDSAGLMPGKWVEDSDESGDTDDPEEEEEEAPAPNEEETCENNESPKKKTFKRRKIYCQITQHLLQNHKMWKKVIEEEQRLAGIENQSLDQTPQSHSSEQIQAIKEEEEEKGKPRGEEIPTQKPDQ

Chain of High affinity cAMP-specific and IBMX-insensitive 3',5'-cyclic phosphodiesterase 8A (O60658 whole entry, the tested form may be a part): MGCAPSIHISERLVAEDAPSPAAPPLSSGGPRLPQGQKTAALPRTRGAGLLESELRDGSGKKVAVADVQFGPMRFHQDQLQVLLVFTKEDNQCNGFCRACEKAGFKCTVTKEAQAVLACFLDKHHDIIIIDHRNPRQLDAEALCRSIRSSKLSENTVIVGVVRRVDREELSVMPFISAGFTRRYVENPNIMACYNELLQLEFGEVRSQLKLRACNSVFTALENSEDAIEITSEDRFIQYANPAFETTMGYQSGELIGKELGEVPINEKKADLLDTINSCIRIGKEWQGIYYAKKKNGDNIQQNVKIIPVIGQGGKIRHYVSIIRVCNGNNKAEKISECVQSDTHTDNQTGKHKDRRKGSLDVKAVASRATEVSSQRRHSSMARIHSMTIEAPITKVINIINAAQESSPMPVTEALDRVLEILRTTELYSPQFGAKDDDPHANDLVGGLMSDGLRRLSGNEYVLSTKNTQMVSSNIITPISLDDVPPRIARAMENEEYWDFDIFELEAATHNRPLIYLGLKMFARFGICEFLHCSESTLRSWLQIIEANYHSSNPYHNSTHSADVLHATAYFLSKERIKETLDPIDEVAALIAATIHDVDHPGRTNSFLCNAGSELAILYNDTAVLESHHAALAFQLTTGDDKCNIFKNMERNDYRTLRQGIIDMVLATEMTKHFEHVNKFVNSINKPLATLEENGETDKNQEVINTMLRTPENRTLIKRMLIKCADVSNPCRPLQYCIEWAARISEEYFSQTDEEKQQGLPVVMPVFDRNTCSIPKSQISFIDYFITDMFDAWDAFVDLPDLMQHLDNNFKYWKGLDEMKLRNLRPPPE
Chain of High affinity 3',5'-cyclic-AMP phosphodiesterase 7A (Q13946 whole entry, the tested form may be a part): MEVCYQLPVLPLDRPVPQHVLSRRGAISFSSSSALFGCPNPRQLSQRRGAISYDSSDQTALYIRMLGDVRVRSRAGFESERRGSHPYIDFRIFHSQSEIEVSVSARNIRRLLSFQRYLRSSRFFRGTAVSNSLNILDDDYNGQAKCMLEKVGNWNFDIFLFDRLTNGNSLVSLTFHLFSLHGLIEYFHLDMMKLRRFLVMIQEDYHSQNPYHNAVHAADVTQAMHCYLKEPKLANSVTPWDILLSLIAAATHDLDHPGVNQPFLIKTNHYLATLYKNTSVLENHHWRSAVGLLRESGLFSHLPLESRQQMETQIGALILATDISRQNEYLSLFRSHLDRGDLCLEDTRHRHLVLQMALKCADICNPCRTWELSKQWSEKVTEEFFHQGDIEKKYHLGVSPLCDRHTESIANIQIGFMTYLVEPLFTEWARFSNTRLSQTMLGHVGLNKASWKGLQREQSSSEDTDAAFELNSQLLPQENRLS
Chain of cGMP-dependent 3',5'-cyclic phosphodiesterase (O00408 whole entry, the tested form may be a part): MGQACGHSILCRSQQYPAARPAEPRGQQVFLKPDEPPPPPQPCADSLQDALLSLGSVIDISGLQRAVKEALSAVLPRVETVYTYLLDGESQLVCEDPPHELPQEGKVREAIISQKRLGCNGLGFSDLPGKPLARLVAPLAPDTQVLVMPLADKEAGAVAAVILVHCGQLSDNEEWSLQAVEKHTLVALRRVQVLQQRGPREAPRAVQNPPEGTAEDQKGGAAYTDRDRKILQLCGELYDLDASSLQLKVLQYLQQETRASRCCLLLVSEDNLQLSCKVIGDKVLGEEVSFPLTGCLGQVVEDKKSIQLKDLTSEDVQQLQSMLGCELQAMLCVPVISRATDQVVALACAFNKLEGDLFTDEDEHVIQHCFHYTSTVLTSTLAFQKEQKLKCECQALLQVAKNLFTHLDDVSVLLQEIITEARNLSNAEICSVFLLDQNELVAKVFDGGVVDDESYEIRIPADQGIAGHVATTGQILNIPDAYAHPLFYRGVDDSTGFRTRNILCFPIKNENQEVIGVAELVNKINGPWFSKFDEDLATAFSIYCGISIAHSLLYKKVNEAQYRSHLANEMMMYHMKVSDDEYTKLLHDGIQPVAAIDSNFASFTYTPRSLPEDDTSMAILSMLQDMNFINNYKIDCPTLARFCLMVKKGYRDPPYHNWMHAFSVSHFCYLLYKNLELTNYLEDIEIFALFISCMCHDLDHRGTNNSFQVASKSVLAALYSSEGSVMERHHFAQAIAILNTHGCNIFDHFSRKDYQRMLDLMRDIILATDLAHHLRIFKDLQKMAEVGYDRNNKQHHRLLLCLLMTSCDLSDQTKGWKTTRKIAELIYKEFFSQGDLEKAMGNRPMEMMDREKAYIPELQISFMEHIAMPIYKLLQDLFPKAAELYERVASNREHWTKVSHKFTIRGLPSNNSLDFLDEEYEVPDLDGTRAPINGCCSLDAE
Chain of High affinity cGMP-specific 3',5'-cyclic phosphodiesterase 9A (O76083 whole entry, the tested form may be a part): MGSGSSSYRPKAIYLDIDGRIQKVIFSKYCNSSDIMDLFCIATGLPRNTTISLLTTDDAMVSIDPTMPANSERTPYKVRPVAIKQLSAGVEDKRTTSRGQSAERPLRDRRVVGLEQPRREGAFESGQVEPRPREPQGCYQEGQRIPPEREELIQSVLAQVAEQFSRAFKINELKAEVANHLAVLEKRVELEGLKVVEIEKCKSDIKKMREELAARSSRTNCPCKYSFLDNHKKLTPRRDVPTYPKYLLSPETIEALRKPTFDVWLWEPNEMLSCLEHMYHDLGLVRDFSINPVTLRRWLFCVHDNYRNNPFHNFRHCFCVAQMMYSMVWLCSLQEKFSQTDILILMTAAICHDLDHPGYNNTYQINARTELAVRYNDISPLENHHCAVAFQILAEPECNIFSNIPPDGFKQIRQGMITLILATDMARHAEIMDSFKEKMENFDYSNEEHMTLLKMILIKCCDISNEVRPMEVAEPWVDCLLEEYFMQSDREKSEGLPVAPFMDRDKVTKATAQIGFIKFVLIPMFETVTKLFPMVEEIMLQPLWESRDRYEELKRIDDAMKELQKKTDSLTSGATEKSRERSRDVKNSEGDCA

Compound | IC50 [1] [µM] | fraction unbound at 4 h, up to 5 µM [2] | solubility [3] [µg/mL] | solubility [4] [µg/mL] | CLint scaled at […] [5] [mL/min/kg] | CLhep predicted at […] [6] [mL/min/kg] | IC50 [12] [µM] | t1/2 (Liver) [min] | IC50 [20] [µM] | also measured
COc1ccc(NC(=O)[C@H](C)Nc2nc3c(cnn3C3CCCC3)c(=O)[nH]2)cc1 | > 100 | < 0.057 | 23 (≈ 58 µM) | 31 (≈ 78.2 µM) | – | – | – | – | – | –
CC(=O)CC(c1ccccc1)c1c(O)c2ccccc2oc1=O (stereo not drawn) [WARFARIN] | – | – | – | – | 30.9 | 23 | – | – | – | –
COc1ccc(NC(=O)[C@@H](C)Nc2nc3c(cnn3C3CCCC3)c(=O)[nH]2)cc1 | > 100 | < 0.057 | 26 (≈ 65.6 µM) | – | 244 | 65.8 | 13 | 22.3 | – | Activity (HepG2 [7]): 93.2%; Activity (HepG2 [8]): 98.4%; Activity (HepG2 [9]): 105%; Activity (HepG2 [10]): 96.5%; Activity (HepG2 [11]): 108%; Activity (Mus musculus [13]): Non-toxic; Activity (Mus musculus [14]): Non-toxic; Activity (Mus musculus [15]): Non-toxic; Activity (Mus musculus [16]): Non-toxic; Activity (Mus musculus [17]): Non-toxic; Activity (HepG2 [18]): 97.2%
C[C@]12CC[C@H]3[C@@H](CCC4=CC(=O)CC[C@@]43C)[C@@H]1CC[C@@H]2O [TESTOSTERONE] | – | – | – | – | 2730 | 87.1 | – | 2 | – | hepatic extraction ratio at 0.5 h, […] (in vitro): 0.968
COc1ccc(NC(=O)[C@@H](C)Nc2nc3c(cnn3-c3ccccc3Cl)c(=O)[nH]2)cc1 | > 100 | – | – | – | – | – | – | – | 51.2 | IC50 [19]: 0.0064 µM
COc1ccc(NC(=O)[C@H](C)Nc2nc3c(cnn3-c3ccccc3Cl)c(=O)[nH]2)cc1 | > 100 | < 0.057 | 8 (≈ 18.2 µM) | 13 (≈ 29.6 µM) | – | – | > 50 | – | > 100 | IC50 [21]: > 50 µM
